Test results reported in patent US20250002473A1, “QUINOXALINE DERIVED SULFONAMIDES WITH EGFR DEGRADATION ACTIVITIES AND THEIR USES THEREOF” (Accutar Biotechnology Inc., priority 2023, published 2025).
Like-named read-outs stand apart in the source and are kept apart here.

Experiments:
Type in all cases: cell-based
HCC827 = assay: Cell growth inhibition assay (CellTiter-Glo), HCC827; conditions: Homo sapiens, 72 h, Table 8, HCC827 cells, three days
Procedure: (§1) HCC827_LTC and HCC827_DTC cell lines were generated by first transducing HCC827 cells (ATCC) with lentiviral particles expressing codon-optimized human EGFR L858R/T790M/C797S (LTC) mutant or Del19/T790M/C797S (DTC) mutant, and then selecting under 5 μg/ml puromycin treatment for a week. The endogenous EGFR alleles were subsequently abolished using the Alt-R™ CRISPR-Cas9 technology (Integrated DNA Technologies). Single clones of HCC827_LTC and HCC827_DTC were selected and validated for endogenous EGFR knockout using Sanger sequencing.
(§2) Cells were seeded in a 96-well plate (Corning 3610) with 90 μL of culture medium per well, and plates were incubated at 37° C. overnight. A 1,000× DMSO stock solution of the desired compound was prepared the following day. A compound dilution plate was prepared by diluting the stock solution 1:100 in the corresponding cell culture medium, 10 μL of the diluted compound solution was added to each 96-well plate well containing the seeded cells. Then, the cells were cultured at 37° C. for three days following compound treatment, 100 μL of CellTiter-Glo reagents (Promega G7573) was added to each well of the 96-well plate. The content of the wells was mixed by shaking continuously for 10 min, and luminescence was measured using Envision (PerkinElmer). The data were analyzed with GraphPad Prism 9 (see FIG. 50).
(§3) Table 6, Table 7, and Table 8 list the cell growth inhibition results, where Gls0 represents the compound concentration to cause 50% cell growth inhibition in comparison with DMSO.

BaF3_ASV = assay: Cell growth inhibition assay (CellTiter-Glo), BaF3_ASV; conditions: 72 h; Table 6; BaF3_ASV cells, three days, CellTiter-Glo; read-out: BaF3_ASV GI50
NCI-H2073 = assay: Cell growth inhibition assay (CellTiter-Glo), NCI-H2073; conditions: 72 h; Table 8; NCI-H2073 cells, three days
Procedure: as §2, with “Then, the cells were cultured at 37° C. for three days following compound treatment, 100 μL of CellTiter-Glo reagents (Promega G7573) was added to each well of the 96-well plate.” left out
as §3

BaF3_DTC = assay: Cell growth inhibition assay (CellTiter-Glo), BaF3_DTC; conditions: 72 h; Table 6; BaF3_DTC cells, three days, CellTiter-Glo; read-out: BaF3_DTC GI50
HCC827_DTC = assay: Cell growth inhibition assay (CellTiter-Glo), HCC827_DTC; conditions: 72 h; Table 8; HCC827 expressing human EGFR Del19/T790M/C797S, endogenous EGFR knockout, three days
Procedure: as §1, §2, §3

A431 = assay: Cell growth inhibition assay (CellTiter-Glo), A431; conditions: Homo sapiens, A-431, 72 h, A431 cells, three days, read-out: A431 GI50
How it was run: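 This growth inhibition assay reports GI50, the compound concentration producing 50% inhibition of cell growth relative to DMSO. Seeded cells (90 μL medium per well, 96-well Corning 3610 plates, overnight at 37° C.) received 10 μL of compound diluted 1:100 from a 1,000× DMSO stock. Luminescence was measured on Envision (PerkinElmer) and analyzed in GraphPad Prism 9.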

[1] = molecular target: T1, BaF3_ASV (EGFR_A776inASV) (Homo sapiens, UniProt P00533, DUP767-769); assay: EGFR degradation assay (western blot), BaF3_ASV cells; conditions: BaF3_ASV cells, compounds 24 h, western blot; read-out: BaF3_ASV DC50
T1 construct: expressed in transfected cells; host or cells: Ba/F3 (engineered)
T1 sequence (P00533 with tags, fused parts or gaps DUP767-769): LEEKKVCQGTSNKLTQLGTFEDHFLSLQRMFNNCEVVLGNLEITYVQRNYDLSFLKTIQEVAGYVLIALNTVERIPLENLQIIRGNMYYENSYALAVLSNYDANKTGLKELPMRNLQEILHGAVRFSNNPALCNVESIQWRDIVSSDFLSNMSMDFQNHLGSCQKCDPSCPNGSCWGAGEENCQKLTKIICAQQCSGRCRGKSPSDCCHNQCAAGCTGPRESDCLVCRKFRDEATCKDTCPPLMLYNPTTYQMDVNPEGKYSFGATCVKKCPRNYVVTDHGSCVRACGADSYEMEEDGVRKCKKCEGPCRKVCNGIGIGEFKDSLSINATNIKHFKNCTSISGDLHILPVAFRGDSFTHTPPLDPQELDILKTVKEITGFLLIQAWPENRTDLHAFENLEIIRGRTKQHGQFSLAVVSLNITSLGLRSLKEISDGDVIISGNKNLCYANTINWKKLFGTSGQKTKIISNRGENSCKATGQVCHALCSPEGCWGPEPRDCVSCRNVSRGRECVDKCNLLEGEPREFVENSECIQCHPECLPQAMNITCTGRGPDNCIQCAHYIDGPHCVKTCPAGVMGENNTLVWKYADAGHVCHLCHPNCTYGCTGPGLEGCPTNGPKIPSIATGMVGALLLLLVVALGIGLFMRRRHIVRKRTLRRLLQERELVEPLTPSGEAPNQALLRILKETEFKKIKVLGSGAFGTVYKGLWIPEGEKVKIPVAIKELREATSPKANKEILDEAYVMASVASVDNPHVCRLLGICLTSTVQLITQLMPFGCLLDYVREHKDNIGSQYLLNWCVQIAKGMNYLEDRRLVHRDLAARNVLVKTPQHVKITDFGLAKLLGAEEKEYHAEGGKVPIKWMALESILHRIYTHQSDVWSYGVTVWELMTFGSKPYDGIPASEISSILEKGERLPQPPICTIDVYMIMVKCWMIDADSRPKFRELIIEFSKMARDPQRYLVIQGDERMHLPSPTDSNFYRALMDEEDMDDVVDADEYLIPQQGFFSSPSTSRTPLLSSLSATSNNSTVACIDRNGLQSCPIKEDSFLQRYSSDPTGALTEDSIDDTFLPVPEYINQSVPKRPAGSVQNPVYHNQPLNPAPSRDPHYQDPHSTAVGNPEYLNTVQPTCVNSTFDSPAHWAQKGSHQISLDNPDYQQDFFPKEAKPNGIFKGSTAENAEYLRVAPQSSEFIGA
How it was run: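 Cells seeded overnight, then exposed to compounds for 24 h; lysates run on western blot, EGFR probed with tubulin loading control and fluorescent secondary detection. DC50 = concentration giving 50% EGFR degradation.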

HCC827_LTC = assay: Cell growth inhibition assay (CellTiter-Glo), HCC827_LTC; conditions: 72 h; Table 8; HCC827 expressing human EGFR L858R/T790M/C797S, endogenous EGFR knockout, three days
Procedure: as §1, §2, §3

GI50 (HCC827) [nM] | GI50 (NCI-H2073) [nM] | GI50 (HCC827_DTC) [nM] | GI50 (A431; Table 8) [nM] | GI50 (HCC827_LTC) [nM] | Compound | GI50 (BaF3_ASV) [nM] | GI50 (BaF3_DTC) [nM] | GI50 (A431; Table 6, CellTiter-Glo) [nM] | DC50 [1] [nM]
0.96 | 134 | 1.53 | 160 | 0.45 | COc1cc(N2CCC(N3CCN(CCc4cc(F)c(C5CCC(=O)NC5=O)c(F)c4)CC3)CC2)c(-c2cnn(C)c2)cc1Nc1ncc(Br)c(Nc2ccc3nccnc3c2NS(C)(=O)=O)n1 (centres unmarked) [Compound 70, N-(6-((5-bromo-2-((4-(4-(4-(4-(2,6-dioxopiperidin-3-yl)-3,5-difluorophenethyl)piperazin-1-yl)piperidin-1-yl)-2-methoxy-5-(1-methyl-1H-pyrazol-4-yl)phenyl)amino)pyrimidin-4-yl)amino)quinoxalin-5-yl)methanesulfonamide] | – | – | – | –
2.82 | > 3000 | 30.8 | > 3000 | 9.38 | COc1cc(N2CCC(N3CCN(c4ccc5c(c4)C(=O)N(C4CCC(=O)NC4=O)C5=O)CC3)CC2)c(-c2cnn(C)c2)cc1Nc1ncc(Br)c(Nc2ccc3nccnc3c2NS(C)(=O)=O)n1 (centres unmarked) [Compound 82, N-(6-((5-bromo-2-((4-(4-(4-(2-(2,6-dioxopiperidin-3-yl)-1,3-dioxoisoindolin-5-yl)piperazin-1-yl)piperidin-1-yl)-2-methoxy-5-(1-methyl-1H-pyrazol-4-yl)phenyl)amino)pyrimidin-4-yl)amino)quinoxalin-5-yl)methanesulfonamide] | – | – | – | –
0.22 | 654 | 2.6 | 164 | 0.77 | COc1cc(N2CCN(C(=O)CN3CCC(c4ccc(NC5CCC(=O)NC5=O)cc4)CC3)CC2)c(-c2cnn(C)c2)cc1Nc1ncc(Br)c(Nc2ccc3nccnc3c2NS(C)(=O)=O)n1 (centres unmarked) [Compound 79, N-(6-((5-bromo-2-((4-(4-(2-(4-(4-((2,6-dioxopiperidin-3-yl)amino)phenyl)piperidin-1-yl)acetyl)piperazin-1-yl)-2-methoxy-5-(1-methyl-1H-pyrazol-4-yl)phenyl)amino)pyrimidin-4-yl)amino)quinoxalin-5-yl)methanesulfonamide] | – | – | – | –
6.81 | 721 | 79.4 | 389 | 11 | COc1cc(N2CCN(C(=O)CN3CCN(c4ccc(NC5CCC(=O)NC5=O)cc4)CC3)CC2)c(-c2cnn(C)c2)cc1Nc1ncc(Br)c(Nc2ccc3nccnc3c2NS(C)(=O)=O)n1 (centres unmarked) [Compound 80, N-(6-((5-bromo-2-((4-(4-(2-(4-(4-((2,6-dioxopiperidin-3-yl)amino)phenyl)piperazin-1-yl)acetyl)piperazin-1-yl)-2-methoxy-5-(1-methyl-1H-pyrazol-4-yl)phenyl)amino)pyrimidin-4-yl)amino)quinoxalin-5-yl)methanesulfonamide] | – | – | – | –

Compound | GI50 (HCC827) [nM] | GI50 (NCI-H2073) [nM] | GI50 (HCC827_DTC) [nM] | GI50 (A431; Table 8) [nM] | GI50 (HCC827_LTC) [nM] | GI50 (BaF3_ASV) [nM] | GI50 (BaF3_DTC) [nM] | GI50 (A431; Table 6, CellTiter-Glo) [nM] | DC50 [1] [nM]
CCn1c(=O)n(C2CCC(=O)NC2=O)c2cccc(CCN3CCN(C4CCN(c5cc(OC)c(Nc6ncc(Br)c(Nc7ccc8nccnc8c7NS(C)(=O)=O)n6)cc5-c5cnn(C)c5)CC4)CC3)c21 (centres unmarked) [Compound 28, N-(6-((5-bromo-2-((4-(4-(4-(2-(1-(2,6-dioxopiperidin-3-yl)-3-ethyl-2-oxo-2,3-dihydro-1H-benzo[d]imidazol-4-yl)ethyl)piperazin-1-yl)piperidin-1-yl)-2-methoxy-5-(1-methyl-1H-pyrazol-4-yl)phenyl)amino)pyrimidin-4-yl)amino)quinoxalin-5-yl)methanesulfonamide] | 0.52 | 340 | 4.42 | 150 | 1.03 | 56.3 | 15.8 | 271 | 93.6
